Source: patent publication US7964531B2, “3-phenoxy-4-pyridazinol derivatives and herbicidal composition containing the same” (Mitsui Chemicals Agro, Inc., priority 2001, dated 2011)

Experiments:
[1] = system: annual broad-leaved weeds (Lindernia spp., Rotala indica); test: Test Example 1: herbicidal effects, paddy-field pot test; format: in vivo; details: chemical dosage 10 g/a; wettable powder applied 3 days after transplanting; judged after 25 days
Procedure: (§1) A paddy soil was filled in 1/10,000 are pot, and seeds of barnyardgrass (Echinochloa oryzicola Vasing.), Scirpus joncoides and annual broad-leaved weeds (Lindernia spp., Rotala indica) which are awaken from dormancy were mixed at the surface layer of 1 cm. Also, tuber of Cyperus serotinus which is germinated was planted, and further seedlings of paddy-field rice at 2.2-leaf stage were transplanted, and they were grown under the flooded condition in a greenhouse. After 3 days from transplanting, a predetermined chemical dosage of the wettable powder prepared in accordance with Preparation example 1 was diluted in water, and the solution was applied to the pot and herbicidal effects and crop injury against transplanted paddy-field rice were judged after 25 days from the treatment. Also, 3-(2-allylphenoxy)-6-chloro-4-methoxypyridazine described in Chemical Pharmaceutical Bulletin, 1972, vol. 20, No. 10, pp. 2191-2203 was used as Comparative compound. Incidentally, herbicidal effects and crop injury against transplanted paddy-field rice were judged by the following judgment standard, and “-” in the table means no test was carried out.
(§2) Judgment Standard • 0: Growth inhibition rate; 0 to 10% • 1: Growth inhibition rate; 11 to 30% • 2: Growth inhibition rate; 31 to 50% • 3: Growth inhibition rate; 51 to 70% • 4: Growth inhibition rate; 71 to 90% • 5: Growth inhibition rate; 91 to 100%.

[2] = system: barnyardgrass (Echinochloa oryzicola Vasing.); test: as above; format: in vivo; details: chemical dosage 10 g/a; wettable powder applied 3 days after transplanting; judged after 25 days
Procedure: as §1, §2

[3] = system: transplanted paddy-field rice; test: Test Example 1: crop injury against transplanted paddy-field rice; format: in vivo; details: chemical dosage 10 g/a; wettable powder applied 3 days after transplanting; judged after 25 days
Procedure: as §1, §2

melting point [°C]	SMILES	further results
–	CC(C)c1cccc(I)c1Oc1nnc(Cl)cc1O [Example 258]	Herbicidal effects Broad leaf [1]: 5 (Growth inhibition rate; 91 to 100%); Herbicidal effects Barnyard grass [2]: 3 (Growth inhibition rate; 51 to 70%); Crop injury against transplanted rice [3]: 0 (Growth inhibition rate; 0 to 10%)
71 to 74	Cc1cccc(C2CC2)c1Oc1nnc(Cl)cc1OC(=O)CC(C)C [Compound No. 1184, 6-Chloro-3-(2-cyclopropyl-6-methylphenoxy)-4-pyridazinyl 3-methylbutanoate]	–
72 to 74	Cc1cccc(C2CC2)c1Oc1nnc(Cl)cc1OC(=O)OCC(C)C [Compound No. 1770, 6-Chloro-3-(2-cyclopropyl-6-methylphenoxy)-4-pyridazinyl isobutyl carbonate]	–
240 to 244	Cc1cc(C)c(Br)c(Oc2nnc(Cl)cc2O)c1 [Compound No. 1013, 3-(2-Bromo-3,5-dimethylphenoxy)-6-chloro-4-pyridazinol]	–
247 to 249	Cc1cccc(C2CC2)c1Oc1nnc(Cl)cc1OC(=O)c1ccc(C(=O)Oc2cc(Cl)nnc2Oc2c(C)cccc2C2CC2)cc1 [Compound No. 3001, Bis[6-chloro-3-(2-cyclopropyl-6-methylphenoxy)-4-pyridazinyl]terephthalate]	–
197 to 198	Cc1cccc(Oc2nnc(Cl)cc2O)c1C1CC1 [Compound No. 472, 6-Chloro-3-(2-cyclopropyl-3-methylphenoxy)-4-pyridazinol]	–
247 to 250	Cc1ccccc1Oc1cc(O)c(Oc2ccccc2C)nn1 [Compound No. 2492, 3,6-Bis(2-methylphenoxy)-4-pyridazinol]	–
198 to 200	C=C(C)Cc1cccc(Cl)c1Oc1nnc(Cl)cc1O [Compound No. 746, 6-Chloro-3-[2-chloro-6-(2-methyl-2-propenyl)phenoxy]-4-pyridazinol]	–
254 to 260	Cc1c(Cl)ccc(Br)c1Oc1nnc(Cl)cc1O [Compound No. 1053, 3-(6-Bromo-3-chloro-2-methylphenoxy)-6-chloro-4-pyridazinol]	–
122 to 125	O=C(Oc1cc(Cl)nnc1Oc1ccccc1C1CC1)C1CC1 [Compound No. 1266, 6-Chloro-3-(2-cyclopropylphenoxy)-4-pyridazinyl cyclopropanecarboxylate]	–
143 to 145	Oc1cc(Cl)nnc1Oc1ccccc1C1OCCO1 [Compound No. 329, 6-Chloro-3-[2-(1,3-dioxolan-2-yl)phenoxy]-4-pyridazinol]	–
173 to 174	CCOCc1ccccc1Oc1nnc(Cl)cc1O [Compound No. 325, 6-Chloro-3-[2-(ethoxymethyl)phenoxy]-4-pyridazinol]	–
195 to 198	CC(=O)c1cccc(Oc2nnc(Cl)cc2O)c1 [Compound No. 422, 1-{3-[(6-Chloro-4-hydroxy-3-pyridazinyl)oxy]phenyl}ethanone]	–
150 to 152	COc1ccc(OC)c(Oc2nnc(Cl)cc2O)c1 [Compound No. 709, 6-Chloro-3-(2,5-dimethoxyphenoxy)-4-pyridazinol]	–
187 to 192	COc1ccc(C#N)cc1Oc1nnc(Cl)cc1O [Compound No. 707, 3-[(6-Chloro-4-hydroxy-3-pyridazinyl)oxy]-4-methoxybenzonitrile]	–
143 to 144	Cc1cccc(C2CC2)c1Oc1nnc(Cl)cc1OC(=O)c1cccn1C [Compound No. 3282, 6-Chloro-3-(2-cyclopropyl-6-methylphenoxy)-4-pyridazinyl 1-methyl-1H-pyrrole-2-carboxylate]	–
162 to 165	CCC1(c2ccccc2Oc2nnc(Cl)cc2O)CC1 [Compound No. 145, 6-Chloro-3-[2-(1-ethylcyclopropyl)phenoxy]-4-pyridazinol]	–
66 to 67	COc1cccc(Oc2nnc(Cl)cc2OC(=O)c2ccccc2C)c1 [Compound No. 1458, 6-Chloro-3-(3-methoxyphenoxy)-4-pyridazinyl 2-methylbenzoate]	–
197 to 199	C[Si](C)(C)c1ccc(Oc2nnc(Cl)cc2O)cc1	–
136 to 138	Cc1cccc(C2CC2)c1Oc1nnc(Cl)cc1OC(=O)N(C)C	–
151.5 to 152.5	CCCCCc1ccccc1Oc1nnc(Cl)cc1O [Compound No. 137, 6-Chloro-3-(2-pentylphenoxy)-4-pyridazinol]	–
188 to 193	Oc1cc(Cl)nnc1Oc1cccc(F)c1F [Compound No. 437, 6-Chloro-3-(2,3-difluorophenoxy)-4-pyridazinol]	–

melting point [°C]	SMILES	further results
183 to 186	C=CCc1c(OC)ccc(CC)c1Oc1nnc(Cl)cc1O [Compound No. 1080, 3-(2-Allyl-6-ethyl-3-methoxyphenoxy)-6-chloro-4-pyridazinol]	–
110 to 112	Cc1ccc(S(=O)(=O)Oc2cc(Cl)nnc2Oc2ccc(C(C)(C)C)cc2Br)cc1 [Compound No. 2245, 3-(2-Bromo-4-tert-butylphenoxy)-6-chloro-4-pyridazinyl 4-methylbenzenesulfonate]	–
127 to 128	Cc1cccc(C2CC2)c1Oc1nnc(Cl)cc1OC(=O)c1ccc(C(F)(F)F)cc1 [Compound No. 2988, 6-Chloro-3-(2-cyclopropyl-6-methylphenoxy)-4-pyridazinyl 4-(trifluoromethyl)benzoate]	–
220 to 221	COc1cccc(Br)c1Oc1nnc(Cl)cc1O [Compound No. 778, 3-(2-Bromo-6-methoxyphenoxy)-6-chloro-4-pyridazinol]	–
219 to 221	Cn1ccc2cccc(Oc3nnc(Cl)cc3O)c21 [Compound No. 2568, 6-Chloro-3-[(1-methyl-1H-indol-7-yl)oxy]-4-pyridazinol]	–
195 to 197	C=Cc1cc(O)c(Oc2ccccc2C)nn1 [Compound No. 2436, 3-(2-Methylphenoxy)-6-vinyl-4-pyridazinol]	–
215 to 216	CC(C)(C)c1ccccc1Oc1nnc(Cl)cc1O [Compound No. 136, 3-(2-tert-Butylphenoxy)-6-chloro-4-pyridazinol]	–
152 to 157	Oc1cc(Cl)nnc1Oc1ccccc1C1(F)CC1 [Compound No. 140, 6-Chloro-3-[2-(1-fluorocyclopropyl)phenoxy]-4-pyridazinol]	–
85 to 87	Cc1ccc(S(=O)(=O)Oc2cc(Cl)nnc2Oc2c(C)cccc2C2CC2)cc1 [Compound No. 2265, 6-Chloro-3-(2-cyclopropyl-6-methylphenoxy)-4-pyridazinyl 4-methylbenzenesulfonate]	–
229 to 231	Oc1cc(Cl)nnc1Oc1ccccc1C1CC1 [Compound No. 139, 6-Chloro-3-(2-cyclopropylphenoxy)-4-pyridazinol]	–
217 to 218	CCc1ccccc1Oc1nnc(Cl)cc1O [Compound No. 130, 6-Chloro-3-(2-ethylphenoxy)-4-pyridazinol]	–
56 to 57	Cc1ccc(S(=O)(=O)Oc2cc(Cl)nnc2Oc2cccc(C(C)(C)C)c2)cc1 [Compound No. 2235, 3-(3-tert-Butylphenoxy)-6-chloro-4-pyridazinyl 4-methylbenzenesulfonate]	–
210 to 212	Oc1cc(Cl)nnc1Oc1ccccc1F [Compound No. 124, 6-Chloro-3-(2-fluorophenoxy)-4-pyridazinol]	–
250 to 252	Cc1c(Cl)cccc1Oc1nnc(Cl)cc1O [Compound No. 454, 6-Chloro-3-(3-chloro-2-methylphenoxy)-4-pyridazinol]	–
232 to 234	Oc1cc(Cl)nnc1Oc1c(C2CC2)cccc1C1CC1 [Compound No. 931, 6-Chloro-3-(2,6-dicyclopropylphenoxy)-4-pyridazinol]	–
246 to 253	COc1ccc(Br)c(Oc2nnc(Cl)cc2O)c1C [Compound No. 1066, 3-(6-Bromo-3-methoxy-2-methylphenoxy)-6-chloro-4-pyridazinol]	–
274 to 278	Oc1cc(Cl)nnc1Oc1c(Br)cccc1Br [Compound No. 756, 6-Chloro-3-(2,6-dibromophenoxy)-4-pyridazinol]	–
187 to 188	CC1(C)CC1c1ccccc1Oc1nnc(Cl)cc1O (stereo not shown) [Compound No. 267, 6-Chloro-3-[2-(2,2-dimethylcyclopropyl)phenoxy]-4-pyridazinol]	–
194 to 195	Oc1cc(Cl)nnc1Oc1cc(Cl)ccc1C1CC1 [Compound No. 659, 6-Chloro-3-(5-chloro-2-cyclopropylphenoxy)-4-pyridazinol]	–
233 to 238	Oc1cc(Cl)nnc1Oc1cccc(Cl)c1Cl [Compound No. 443, 6-Chloro-3-(2,3-dichlorophenoxy)-4-pyridazinol]	–
222 to 224	Oc1cc(Cl)nnc1Oc1ccccc1 [Compound No. 123, 6-Chloro-3-phenoxy-4-pyridazinol]	–
243 to 245	Oc1cc(Cl)nnc1Oc1cccc2ccccc12 [Compound No. 527, 6-Chloro-3-(1-naphthyloxy)-4-pyridazinol]	–
